Measured values: patent US20080234384A1, “BIARYL AND BIHETEROARYL COMPOUNDS USEFUL IN TREATING IRON DISORDERS” (XENON PHARMACEUTICALS INC., priority 2007, published 2008)
Where a name gives a salt, the structure may show the parent alone.

Target: T1, DMT1 (Homo sapiens, UniProt P49281)
T1 sequence (P49281 1-568): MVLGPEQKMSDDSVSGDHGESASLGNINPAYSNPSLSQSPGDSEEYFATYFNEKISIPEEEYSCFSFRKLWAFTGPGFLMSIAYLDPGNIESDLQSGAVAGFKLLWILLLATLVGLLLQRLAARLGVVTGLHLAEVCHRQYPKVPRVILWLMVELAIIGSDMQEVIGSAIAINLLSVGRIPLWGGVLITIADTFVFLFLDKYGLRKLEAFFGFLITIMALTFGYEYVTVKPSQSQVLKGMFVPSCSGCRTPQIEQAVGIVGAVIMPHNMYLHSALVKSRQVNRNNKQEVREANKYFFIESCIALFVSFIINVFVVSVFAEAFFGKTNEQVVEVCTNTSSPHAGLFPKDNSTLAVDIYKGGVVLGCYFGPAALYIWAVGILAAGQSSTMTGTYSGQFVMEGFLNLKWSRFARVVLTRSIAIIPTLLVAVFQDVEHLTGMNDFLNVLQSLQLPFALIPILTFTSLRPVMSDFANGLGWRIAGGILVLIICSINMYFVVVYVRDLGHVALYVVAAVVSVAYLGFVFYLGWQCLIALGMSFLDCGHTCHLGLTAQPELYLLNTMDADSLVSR
Assay: DMT1 Activity Assay (In Vitro Assay)
Type: cell-based
Conditions: read-out: IC50 Activity Level
Source text: In particular, identification of the compounds of the invention ability to modulate, preferably to inhibit, DMT1 activity, can be assessed using a variety of in vitro and in vivo assays, for measuring uptake of reduced iron (Fe^2+). One such protocol involves the screening of chemical agents for ability to modulate the activity of DMT1 thereby identifying it as a modulating agent. The in vitro activity of DMT1 can be measured in cell based assays by either directly measuring iron flux (using a radioactively labelled iron ^55Fe) or by measuring the fluorescence of a cell permeable iron fluorophore such as calcein. Stable cell lines overexpressing DMT1 are exposed to ^55Fe or loaded with calcein and then compound is applied. […] Alternatively, in another format electrophysiological techniques can be used to measure the current or iron or other metals traversing the cell membrane with DMT1 in a Xenopus oocyte or other cell based system (Gunshin et al., Nature, 1997, 31; 388(6641):482-8).
This example discloses various in vitro assay for testing and profiling test agents against DMT1 stably expressed in cells of either an endogenous or recombinant origin. These assays can use stable cell lines overexpressing DMT1 or intestinal cells and intestinal tissue expressing endogenous DMT1. DMT1 function could also be assessed in other cell types that express DMT1. Of greatest relevance would be the erythrocytes (e.g. K562 cells) or hepatocytes (e.g. […]).
DMT1 function can be assessed in a number of ways, including monitoring fluorescence changes of an iron fluorophore (e.g. calcein), monitoring uptake of radiolabelled iron (55Fe or ^59Fe) (Picard et al., J. Biol. Chem., 2000, 275(46):35738-45 and Wetli et al., Chem. Biol. 2006 September; 13(9):965-72), or by assessing the current or transport of iron and other metals into the cells or tissues using standard electrophysiological techniques (Gunshin et al., Nature, 1997, 388(6641):482-8.).
Variations of these assays involve alterations of incubation times, the iron status of the cells and tissues (which may be modulated by chemical chelators or by harvesting from iron deficient animals), the metal cation detected and the pH of the reaction can generally be made by conventional techniques known to those skilled in the art.

Row | SMILES | IC50
1 | N#CN=C(N)CCc1ccccc1Sc1ccccc1CCC(N)=NC#N [Example 7, 2-(6-(2-(cyanoamidino)ethyl)phenyl)thio-1-(2-(cyanoamidino)ethyl)benzene] | ≥ 1000 nM
2 | N=C(N)SCc1cc(F)ccc1Oc1cc(Cl)ccc1CSC(=N)N [Example 2.30, 2-[2-({[amino(imino)methyl]thio}methyl)-5-chlorophenoxy]-5-fluorobenzyl imidothiocarbamate dihydrobromide] | 100 to 1000 nM
3 | N=C(N)SCc1ccccc1Sc1cc(Cl)ccc1CSC(=N)N [Example 1.11, 2-[2-(2-carbamimidoylsulfanylmethyl-5-chlorophenylsulfanyl)-benzyl]isothiourea dihydrobromide] | 100 to 1000 nM
4 | N=C(N)SCc1ccc(Cl)cc1Oc1cc([N+](=O)[O-])ccc1CSC(=N)N [Example 2.9, 2-[2-({[amino(imino)methyl]thio}methyl)-5-chlorophenoxy]-4-nitrobenzyl imidothiocarbamate dihydrobromide] | ≥ 1000 nM
5 | N=C(N)SCc1cc(F)ccc1S(=O)(=O)c1ccc(F)cc1CSC(=N)N [Example 2.4, 2-[2-(2-carbamimidoylsulfanylmethyl-4-fluorophenylsulfonyl)-5-fluorobenzyl]isothiourea dihydrobromide] | ≥ 1000 nM
6 | N=C(N)SCc1cccc(CSC(=N)N)c1-c1c(CSC(=N)N)cccc1CSC(=N)N [Example 2.23, biphenyl-2,2′-6,6′-tetrayltetrakis(methylene)tetracarbamimidothioate tetrahydrobromide] | ≥ 1000 nM
7 | N=C(N)SCCc1ccccc1Sc1ccccc1CCSC(=N)N [Example 1.31, dihydrobromide] | ≥ 1000 nM
8 | N#CN=C(N)CCCc1ccccc1Sc1ccccc1CCCC(N)=NC#N [Example 7.2, 2-(6-(3-(cyanoamidino)propyl)phenyl)thio-1-(3-(cyanoamidino)propyl)benzene] | ≥ 1000 nM
9 | N=C(N)SCc1ccccc1Sc1ccc(C(F)(F)F)cc1CSC(=N)N [Example 1.27, 2-[2-(2-carbamimidoylsulfanylmethylphenylsulfanyl)-5-(trifluoromethyl)benzyl]isothiourea dihydrobromide] | ≥ 1000 nM

Test system: not given
Assay: not given
Conditions: not given

Row | SMILES | melting point
10 | N=C(N)SCc1ccccc1Oc1ccc(Cl)cc1CSC(=N)N (as salt: hydrobromid) [Example 2.16, 2-[2-({[amino(imino)methyl]thio}methyl)-4-chlorophenoxy]benzyl imidothiocarbamate dihydrobromide] | > 220 °C
11 | N=C(N)SCc1ccccc1C(=O)c1cc(Cl)ccc1CSC(=N)N (as salt: hydrobromid) [Example 2.28, 2-(6-(amidinothiomethyl)phenyl)carbonyl-1-(amidinothiomethyl)-4-chlorobenzene dihydrobromide dihydrobromide] | > 250 °C
12 | N=C(N)SCc1ccccc1Oc1cc(Cl)ccc1CSC(=N)N (as salt: hydrobromid) [Example 2.18, 2-[2-({[amino(imino)methyl]thio}methyl)-5-chlorophenoxy]benzyl imidothiocarbamate dihydrobromide] | > 220 °C
13 | N=C(N)SCc1cc(Cl)ccc1Oc1ccc([N+](=O)[O-])cc1CSC(=N)N (as salt: hydrobromid) [Example 2.20, 2-[2-({[amino(imino)methyl]thio}methyl)-4-chlorophenoxy]-5-nitrobenzyl imidothiocarbamate dihydrobromide] | > 220 °C
14 | N=C(N)SCc1ccccc1C(=O)c1cc(F)ccc1CSC(=N)N (as salt: hydrobromid) [Example 2.27, 2-(6-(amidinothiomethyl)phenyl)carbonyl-1-(amidinothiomethyl)-4-fluorobenzene dihydrobromide] | > 250 °C
15 | COC(=O)c1cccc(CSC(=N)N)c1-c1c(CSC(=N)N)cccc1C(=O)OC (as salt: hydrobromid) [Example 2.24, dimethyl 6,6′-bis(carbamimidoylthiomethyl)biphenyl-2,2′-dicarboxylate dihydrobromide] | 222 to 225 °C
16 | N=C(N)SCc1ccccc1C(=O)c1ccc(Cl)cc1CSC(=N)N (as salt: hydrobromid) [Example 2.29, 2-(6-(amidinothiomethyl)phenyl)carbonyl-1-(amidinothiomethyl)-5-chlorobenzene dihydrobromide] | > 250 °C
17 | N=C(N)SCc1ccccc1C(=O)c1ccc(F)cc1CSC(=N)N (as salt: hydrobromid) [Example 2.26, 2-(6-(amidinothiomethyl)phenyl)carbonyl-1-(amidinothiomethyl)-5-fluorobenzene dihydrobromide] | > 250 °C
18 | N=C(N)SCc1ccccc1Oc1ccc(F)cc1CSC(=N)N (as salt: hydrobromid) [Example 2.21, 2-[2-({[amino(imino)methyl]thio}methyl)-4-fluorophenoxy]benzyl imidothiocarbamate dihydrobromide] | > 220 °C
19 | N=C(N)SCc1ccc(Cl)cc1Oc1cc([N+](=O)[O-])ccc1CSC(=N)N (as salt: hydrobromid) [Example 2.9, 2-[2-({[amino(imino)methyl]thio}methyl)-5-chlorophenoxy]-4-nitrobenzyl imidothiocarbamate dihydrobromide] | > 220 °C
20 | N#CN=C(N)CCc1ccccc1Sc1ccccc1CCC(N)=NC#N [Example 7, 2-(6-(2-(cyanoamidino)ethyl)phenyl)thio-1-(2-(cyanoamidino)ethyl)benzene] | 188 to 190 °C
21 | N=C(N)SCc1cc(F)ccc1Oc1ccc([N+](=O)[O-])cc1CSC(=N)N (as salt: hydrobromid) [Example 2.14, 2-[2-({[amino(imino)methyl]thio}methyl)-4-fluorophenoxy]-5-nitrobenzyl imidothiocarbamate dihydrobromide] | > 220 °C
22 | N=C(N)SCc1cc([N+](=O)[O-])ccc1Oc1cc(Cl)ccc1CSC(=N)N (as salt: hydrobromid) [Example 2.19, 2-[2-({[amino(imino)methyl]thio}methyl)-5-chlorophenoxy]-5-nitrobenzyl imidothiocarbamate dihydrobromide] | > 220 °C
23 | N=C(N)SCc1ccccc1Oc1cccc(Cl)c1CSC(=N)N (as salt: hydrobromid) [Example 2.17, 2-[2-({[amino(imino)methyl]thio}methyl)-3-chlorophenoxy]benzyl imidothiocarbamate dihydrobromide] | 150 to 152 °C
24 | N=C(N)SCc1cccc(CSC(=N)N)c1-c1c(CSC(=N)N)cccc1CSC(=N)N (as salt: hydrobromid) [Example 2.23, biphenyl-2,2′-6,6′-tetrayltetrakis(methylene)tetracarbamimidothioate tetrahydrobromide] | 233 to 235 °C
25 | NC(N)=NC(=O)c1ccccc1Sc1ccccc1C(=O)N=C(N)N [Example 4, 2,2′-thiobis(N-(diaminomethylene)benzamide)] | > 220 °C
26 | N=C(N)SCc1cc(F)ccc1Oc1cccc(Cl)c1CSC(=N)N (as salt: hydrobromid) [Example 2.10, 2-[2-(2-carbamimidoylsulfanylmethyl-3-chlorophenoxy)-5-fluorobenzyl]isothiourea dihydrobromide] | 204 to 206 °C
27 | N=C(N)SCc1ccccc1C(=O)c1ccccc1CSC(=N)N (as salt: hydrobromid) [Example 2.25, 2-(6-(amidinothiomethyl)phenyl)carbonyl-1-(amidinothiomethyl)benzene dihydrobromide] | 239 to 240 °C (dec.)
28 | N#CN=C(N)CCCc1ccccc1Sc1ccccc1CCCC(N)=NC#N [Example 7.2, 2-(6-(3-(cyanoamidino)propyl)phenyl)thio-1-(3-(cyanoamidino)propyl)benzene] | 155 to 157 °C
29 | N=C(N)SCc1cc(F)ccc1Oc1ccc(Cl)cc1CSC(=N)N (as salt: hydrobromid) [Example 2.11, 2-[2-(2-carbamimidoylsulfanylmethyl-4-chlorophenoxy)-5-fluorobenzyl]isothiourea dihydrobromide] | > 230 °C
